The test system of one experiment is CRL1790 cells. Nature of the experiment: Resazurin cytotoxic assay, non-tumoral CRL1790. In kind it is cell-based. The following applies: Homo sapiens, Epithelial cell, CRL1790 non-tumoral colon epithelial cells, 48 h, mean ± SD. Here is the method:
(§1) CRL1790, SW480 and SW620 cell lines were purchased from American Type Culture Collection (ATCC). Cells were cultured at 37 °C with 5% CO2 atmosphere in medium supplemented with 10% fetal bovine serum (10270106, Gibco, Waltham, MA, USA), 10 mg/mL penicillin, 10 mg/mL streptomycin, […] amphotericin, and 0.03% L-Glutamine as recommended by the ATCC. MEM medium (M5650, Merck, Darmstadt, Germany) was used for non-tumoral CRL1790, and RPMI 1640 medium (L0501-500, Biowest, Nuaillé, France) was used for both tumoral SW480 and SW620 cell lines.
(§2) Cytotoxic activity was screened using Resazurin Fluorimetric Assay (R7017, Merck, Darmstadt, Germany), according to the manufacturer’s protocol. Cells seeded into 96-well plates (8 × 10^3 cells/well) were treated for 48 h with phenolic compounds at increasing concentrations from 2 × 10^−5 µM to 100 µM. Negative control with vehicle DMSO was included. Fluorescence was determined using Nanoquant Infinite M200 Pro multi-plate reader (Tecan). Half-maximal inhibitory concentration (IC50) values were determined in triplicate by non-linear regression with Graphpad (Prism).
(§3) Natural products such as phenolic compounds have recently attracted significant attention for their anticancer properties. […] We used three different cell lines to mimic CRC progression. In particular, CRL1790 are colon epithelial cells simulating the non-tumoral stage. In addition, SW480 is Dukes’ type B colorectal adenocarcinoma cells representing the primary tumor. Finally, SW620 constitutes Dukes’ type C colorectal adenocarcinoma derived from metastasic site cells to mimic the most aggressive metastasic stage. […] Cytotoxic potency upon 48 h treatment with phenolic compounds was examined by determination of half-maximal inhibitory concentration (IC50) values using the Resazurin method (Table 1). Only GA inhibited cell growth in SW480 and SW620 at clinically-relevant concentrations (IC50 values lower than 30 µM).

Another experiment concerns SW620 cells. Nature of the experiment: Resazurin cytotoxic assay, metastatic SW620. In kind it is cell-based, human. The following applies: 48 h, mean ± SD. The method, then: as §1, §2, §3
A further experiment relates to SW480 cells. Nature of the experiment: Immunofluorescence of nucleolar proteins (NCL, FBL, POLR1A). The following applies: SW480, GA IC50 for 6 h. In kind it is cell-based, human. Here is the method:
Cells were seeded on 13 mm circular coverslips and placed in 24-well plates. After exposure to different experimental conditions, fixation was performed with 4% (v/v) paraformaldehyde (P6148, Merck, Darmstadt, Germany) for 10 min at room temperature (RT), permeabilization with 0.1% (v/v) Triton-X100 (T8787, Merck, Darmstadt, Germany) for 10 min and blocking with 10% bovine serum albumin (A7906, Merck, Darmstadt, Germany) containing 0.5% (v/v) Triton-X100 for 30 min at RT. Primary antibodies were incubated for 1 h at RT and secondary antibodies for 30 min at 4 °C in darkness. Finally, all coverslips were mounted onto slides (J2800AMNZ, Thermo scientific, Waltham, MA, USA), including DAPI (4′,6-diamidino-2-phenylindole) for nuclear counterstain. Images were acquired on a Confocal Zeiss LSM 710 inverted microscope with a 63× immersion objective. In a different manner, BG4 immunofluorescence was conducted as previously described. BG4 mean nuclear fluorescence intensity was quantified using Fiji software (N > 250). Antibodies used are listed in Supplementary Table S1.
GA is widely present in the plant kingdom and largely found in different food sources. According to its cytotoxic activity (shown above), cell cycle analysis was performed on SW480 cells by FACS with propidium iodide staining (Figure 1C). After GA IC50 treatment for 24 h, the frequency of cells at different stages of the cell cycle changed with respect to non-treated cells (45.34% of cells at G1, 34.16% at S, 7.65% at G2/M). […] To explore this hypothesis, we determined the intracellular localization of nucleolar proteins by immunofluorescence of SW480 cells treated with GA IC50 for 6 h because we had previously observed that some DNA-binding compounds affect nucleolar organization. In particular, we analyzed three proteins that are indicative of nucleolus status, such as nucleolin (NCL), fibrillarin (FBL), and Pol I catalytic subunit A (POLR1A) (Figure 1D).

The subject of experiment [1] is CMYC G4. Briefly: TOPRO3 fluorescent intercalator displacement (FID) assay, CMYC G4. It counts as binding. The following applies: GA 10 µM, relative to GA-free control, CMYC promoter G4. The method, then: (§4) G4-oligonucleotides listed in Supplementary Table S3 were purchased from Integrated DNA Technologies (Clareville, IA, USA). All of them were dissolved in G4s buffer (10 mM potassium phosphate, 100 mM potassium chloride at pH 7.0), heated at 95 °C for 10 min, slowly cooled to RT, and stored at 4 °C.
We used TOPRO3 (T3605, Thermo Scientific, MA, USA) as a fluorescent intercalator for FID assays. In particular, […] TOPRO3 was incubated with […] prefolded G4s and exposed to 10 µM GA in 96-well plates. TOPRO3 was excited at 642 nm, and emission profile was monitored between 650–800 nm with Infinite M200 Plate Reader (Tecan). Fluorescence values were calculated as follows: %Fluorescence = A/B × 100; where (A) is the fluorescence value in presence of GA, and (B) corresponds to the fluorescence value in GA-free controls. All assays were conducted in triplicate. The G4-oligonucleotides used in the current study are listed in Supplementary Table S3.

For experiment [2], the target named is CMYC G4. Nature of the experiment: UV-vis titration, CMYC G4. The following applies: UV-vis titration at 265 nm, CMYC G4, 25 °C, pH 7.0; read-out: dissociation constant (Kd). It counts as binding. The method, then: as §4
UV-vis absorption spectra were registered in a Varian Cary 50 UV-vis spectrophotometer at 25 °C. Concentration of the prefolded G4 DNA was 5 μM in G4s buffer (10 mM potassium phosphate buffer containing 100 mM potassium chloride at pH 7.0). Once the DNA was placed in the cuvette, a concentrated solution of GA (1 mM) was routinely added, 1 μL each time, with a Hamilton syringe and subsequently mixed with a pipette. After each addition of the GA solution, a UV-vis spectrum was recorded. In total, 10 μL of GA solution were added, with a final ratio of 1:20 G4 DNA:GA. For the blank, the same experiment with the successive additions was repeated, beginning just with buffer in the cuvette. […] Dissociation constants (Kd) were evaluated at 265 nm using the following equation:(1) A=Am+(Aml-Am)×(M+L+Kd)−(M+L+Kd)^2−4×M×L/2×M where A is the absorbance signal, Am is the signal of DNA in absence of the ligand, Aml is the signal of DNA in presence of the ligand, M is the total concentration of DNA, L is the total concentration of ligand, and Kd is the dissociation constant.

Structures are written as SMILES.

Take `O=C(O)c1cc(O)c(O)c(O)c1` [Gallic acid, 3,4,5-trihydroxybenzoic acid]: the IC50 was over 100 µM in the experiment on CRL1790 cells, 11.8 ± 1.54 µM in the experiment with SW620 cells and under 30 µM in the experiment with SW620 cells (listed as GA). In addition, the “nucleolar localization of POLR1A” value in the experiment with SW480 cells is on record as “significant changes in POLR1A were not observed”. The “nucleolar localization of fibrillarin (FBL)” value with SW480 cells is on record as “segregation of FBL to nucleolar periphery caps”. Moreover, the “nucleolar localization of nucleolin (NCL)” value in the experiment with SW480 cells is reported as “translocation of NCL from the nucleolus to the nucleoplasm”. For the same compound, the TOPRO3 fluorescence percentage in the experiment on CMYC G4 [1] came out at 84.3%. The equilibrium dissociation constant (Kd) on CMYC G4 [2] stood at 113 µM.

The values above are taken from article PMC9179882 (Cancers, 2022).
